Source: PubChem BioAssay AID330 (DTP/NCI, 2004)
Values joined by “and” are separate entries in the source; they are usually repeats but may differ in a detail not shown here. Equal values may be shown once. Toxic doses and inconclusive results are not listed.

System: P388 leukemia ip, CD2F1 mice, survival T/C
Experiment: NCI In Vivo Anticancer Drug Screen. Data for tumor model P388 Leukemia (intraperitoneal) in CD2F1 (CDF1) mice
Details: endpoint: median survival time, higher = longer survival
Summary of the method: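 Mice carrying the transplanted tumor received test compound or vehicle. Survival was recorded in each group, and the value is the treated-group measurement divided by that of the vehicle-treated control group.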

[1] = dose: 100.0 mg/kg/injection, schedule: Q04DX003 (ip), vehicle: saline with Tween-80
[2] = dose: 50.0 mg/kg/injection, schedule: Q01DX005 (ip), vehicle: Klucel (hydroxypropylcellulose) (HPC)
[3] = dose: 100.0 mg/kg/injection, schedule: Q01DX005 (ip), vehicle: Klucel (hydroxypropylcellulose) (HPC)
[4] = dose: 200.0 mg/kg/injection, schedule: Q01DX005 (ip), vehicle: Klucel (hydroxypropylcellulose) (HPC)
[5] = dose: 60.0 mg/kg/injection, schedule: Q01DX005 (ip), vehicle: saline with Tween-80
[6] = dose: 120.0 mg/kg/injection, schedule: Q01DX005 (ip), vehicle: saline with Tween-80
[7] = dose: 240.0 mg/kg/injection, schedule: Q01DX005 (ip), vehicle: saline with Tween-80
[8] = dose: 50.0 mg/kg/injection, schedule: Q01DX009 (ip), vehicle: saline
[9] = dose: 100.0 mg/kg/injection, schedule: Q01DX009 (ip), vehicle: saline
[10] = dose: 100.0 mg/kg/injection, schedule: Q01DX001 (ip), vehicle: saline with Tween-80
[11] = dose: 200.0 mg/kg/injection, schedule: Q01DX001 (ip), vehicle: saline with Tween-80

CCN(CC)C(=O)c1cccc(COc2ccc(N3C(N)=NC(N)=NC3(C)C)cc2Cl)c1
T/C (dose: 50.0 mg/kg/injection, schedule: Q01DX009 (ip), vehicle: saline sonified): 90 % of control
T/C (dose: 50.0 mg/kg/injection, schedule: Q04DX003 (ip), vehicle: saline sonified): 109 % of control
T/C (dose: 100.0 mg/kg/injection, schedule: Q01DX009 (ip), vehicle: saline sonified): 109 % of control
T/C (dose: 100.0 mg/kg/injection, schedule: Q04DX003 (ip), vehicle: saline sonified): 100 % of control

CCOc1ccc(/C=C/c2ccc3ccccc3[n+]2C)cc1OCC
T/C (dose: 0.78 mg/kg/injection, schedule: Q01DX009 (ip), vehicle: saline with Tween-80): 102 % of control
T/C (dose: 1.56 mg/kg/injection, schedule: Q01DX009 (ip), vehicle: saline with Tween-80): 111 % of control

CCCCCCCCCCCCCCCCCC(=O)OCCCCCCCCCCCCC
T/C (dose: 100.0 mg/kg/injection, schedule: Q01DX001 (ip), vehicle: other): 95 % of control
T/C (dose: 200.0 mg/kg/injection, schedule: Q01DX001 (ip), vehicle: other): 100 % of control
T/C (dose: 400.0 mg/kg/injection, schedule: Q01DX001 (ip), vehicle: other): 95 % of control

CNC(=O)OCc1c(COC(=O)NC)c(-c2ccc(N)cc2)n(C)c1C
T/C (dose: 6.25 mg/kg/injection, schedule: Q01DX009 (ip), vehicle: distilled water + Tween-80): 106 % of control and 92 % of control
T/C (dose: 12.5 mg/kg/injection, schedule: Q01DX009 (ip), vehicle: distilled water + Tween-80): 119 % of control and 98 % of control
T/C (dose: 25.0 mg/kg/injection, schedule: Q01DX009 (ip), vehicle: distilled water + Tween-80): 100 % of control and 123 % of control
T/C (dose: 50.0 mg/kg/injection, schedule: Q01DX009 (ip), vehicle: distilled water + Tween-80): 119 % of control

Cc1nc2c([N+](=O)[O-])c(NCCO)c([N+](=O)[O-])cc2[nH]1
T/C [1]: 94 % of control
T/C (dose: 200.0 mg/kg/injection, schedule: Q04DX003 (ip), vehicle: saline with Tween-80): 92 % of control
T/C (dose: 400.0 mg/kg/injection, schedule: Q04DX003 (ip), vehicle: saline with Tween-80): 103 % of control

COc1cc(N)c2c(c1N)C(=O)c1ccccc1C2=O
T/C [2]: 98 % of control
T/C [3]: 101 % of control
T/C [4]: 97 % of control

CC(=O)CNc1ccccc1C(N)=O
T/C [2]: 101 % of control
T/C [3]: 95 % of control
T/C [4]: 104 % of control

C=CCn1c(C)nc2c(cnn2C)c1=O
T/C [2]: 101 % of control
T/C [3]: 110 % of control
T/C [4]: 104 % of control

O=C1NC(O)c2cc(Cl)cc(Cl)c2O1 (configuration not stated)
T/C [2]: 102 % of control
T/C [3]: 102 % of control
T/C [4]: 115 % of control

O=C1c2ccccc2C(=O)N1OCc1csc(-c2ccccc2)n1
T/C [2]: 95 % of control
T/C [3]: 101 % of control

CCOC(=O)c1cn(C(=O)CCl)c2ccccc2c1=O
T/C [5]: 103 % of control
T/C [6]: 100 % of control
T/C [7]: 97 % of control

NC(=Nc1ccccc1)N(c1ccccc1)c1nc(=S)ss1
T/C (dose: 100.0 mg/kg/injection, schedule: Q04DX002 (ip), vehicle: saline with Tween-80): 104 % of control
T/C (dose: 200.0 mg/kg/injection, schedule: Q04DX002 (ip), vehicle: saline with Tween-80): 93 % of control
T/C (dose: 400.0 mg/kg/injection, schedule: Q04DX002 (ip), vehicle: saline with Tween-80): 87 % of control

O=C(Nc1cc(Cl)c(Cl)cc1Cl)OCc1ccc2c(c1)OCO2
T/C (dose: 15.0 mg/kg/injection, schedule: Q01DX005 (ip), vehicle: saline with Tween-80): 100 % of control
T/C (dose: 30.0 mg/kg/injection, schedule: Q01DX005 (ip), vehicle: saline with Tween-80): 94 % of control
T/C [5]: 89 % of control and 91 % of control

COc1c2c3c4c5c(c(=O)cc6c5c5c(cc(=O)c(c1O)c35)OCO6)=C(O)[C@@]1(OC)O[C@H](C)C[C@@]41C2
T/C (dose: 2.5 mg/kg/injection, schedule: Q01DX009 (ip), vehicle: saline with Tween-80): 95 % of control
T/C (dose: 5.0 mg/kg/injection, schedule: Q01DX009 (ip), vehicle: saline with Tween-80): 95 % of control
T/C (dose: 10.0 mg/kg/injection, schedule: Q01DX009 (ip), vehicle: saline with Tween-80): 95 % of control

NC1=NC2CC(N1)c1ccc(O)cc1O2 (configuration not stated)
T/C [8]: 109 % of control
T/C [9]: 110 % of control

O=C(O)c1cc(=O)cc(-c2ccccc2)o1
T/C [2]: 98 % of control
T/C [3]: 97 % of control
T/C [4]: 101 % of control

CC1(CO)CCCC1NCCNC1CCCC1(C)CO (configuration not stated)
T/C [5]: 102 % of control
T/C [6]: 105 % of control

BrCC1(CBr)COC1
T/C (dose: 50.0 mg/kg/injection, schedule: Q01DX001 (ip), vehicle: Klucel (hydroxypropylcellulose) (HPC)): 95 % of control
T/C (dose: 100.0 mg/kg/injection, schedule: Q01DX001 (ip), vehicle: Klucel (hydroxypropylcellulose) (HPC)): 107 % of control
T/C (dose: 200.0 mg/kg/injection, schedule: Q01DX001 (ip), vehicle: Klucel (hydroxypropylcellulose) (HPC)): 100 % of control

N#Cc1cnn(-c2cccc(Cl)c2)c1-n1cccc1
T/C (dose: 50.0 mg/kg/injection, schedule: Q01DX009 (ip), vehicle: saline with Tween-80): 100 % of control
T/C (dose: 100.0 mg/kg/injection, schedule: Q01DX009 (ip), vehicle: saline with Tween-80): 100 % of control
T/C (dose: 200.0 mg/kg/injection, schedule: Q01DX009 (ip), vehicle: saline with Tween-80): 93 % of control

CC1(C)N2c3ccc(Cl)cc3C(c3ccccc3)N1c1ccc(Cl)cc1C2c1ccccc1 (configuration not stated)
T/C (dose: 50.0 mg/kg/injection, schedule: Q01DX009 (ip), vehicle: Klucel (hydroxypropylcellulose) (HPC)): 98 % of control
T/C (dose: 100.0 mg/kg/injection, schedule: Q01DX009 (ip), vehicle: Klucel (hydroxypropylcellulose) (HPC)): 95 % of control
T/C (dose: 200.0 mg/kg/injection, schedule: Q01DX009 (ip), vehicle: Klucel (hydroxypropylcellulose) (HPC)): 95 % of control

CNC(=O)C1OC(n2cnc3c(N)ncnc32)C(O)C1O (configuration not stated)
T/C (dose: 0.78 mg/kg/injection, schedule: Q01DX005 (ip), vehicle: saline with Tween-80): 109 % of control and 110 % of control and 120 % of control
T/C (dose: 1.56 mg/kg/injection, schedule: Q01DX005 (ip), vehicle: saline with Tween-80): 113 % of control and 114 % of control and 116 % of control
T/C (dose: 3.13 mg/kg/injection, schedule: Q01DX005 (ip), vehicle: saline with Tween-80): 117 % of control

COC(=O)C(=O)c1c(C2CC2)[nH]c2[nH]n(-c3ccccc3)c(=O)c2c1=O
T/C [5]: 96 % of control
T/C [6]: 91 % of control

CCN(CC)C(=O)C(F)Cl (configuration not stated)
T/C [5]: 88 % of control
T/C [6]: 88 % of control
T/C [7]: 95 % of control

CC1OC(=O)C(C)C1=O (configuration not stated)
T/C (dose: 50.0 mg/kg/injection, schedule: Q01DX005 (ip), vehicle: saline): 104 % of control
T/C (dose: 100.0 mg/kg/injection, schedule: Q01DX005 (ip), vehicle: saline): 92 % of control
T/C (dose: 200.0 mg/kg/injection, schedule: Q01DX005 (ip), vehicle: saline): 113 % of control

O=C(CBr)NCC1OC(n2cnc3c(=O)[nH]cnc32)C(O)C1O (configuration not stated)
T/C (dose: 25.0 mg/kg/injection, schedule: Q01DX005 (ip), vehicle: Klucel (hydroxypropylcellulose) (HPC)): 99 % of control
T/C [2]: 96 % of control
T/C [3]: 99 % of control

O=C(OCOC(=O)N1CCOCC1)N1CCOCC1
T/C [5]: 105 % of control
T/C [7]: 94 % of control

NC(=NCCSCc1ccccc1)NCCc1cnc[nH]1
T/C [10]: 102 % of control
T/C [11]: 102 % of control
T/C (dose: 400.0 mg/kg/injection, schedule: Q01DX001 (ip), vehicle: saline with Tween-80): 98 % of control

CC1(c2ccccc2)NN(S(=O)(=O)c2ccccc2)C(c2ccccc2)(c2ccccc2)/C1=N/Nc1ccccc1 (configuration not stated)
T/C (dose: 50.0 mg/kg/injection, schedule: Q01DX001 (ip), vehicle: saline with Tween-80): 93 % of control
T/C [10]: 88 % of control
T/C [11]: 89 % of control

Cc1ccc(S(=O)(=O)C(Sc2ccccc2)=S=NC23CC4CC(CC(C4)C2)C3)cc1
T/C [8]: 100 % of control
T/C [9]: 108 % of control
T/C (dose: 200.0 mg/kg/injection, schedule: Q01DX009 (ip), vehicle: saline): 97 % of control

Nc1ncc2c(n1)CSCC2=O
T/C [5]: 98 % of control
T/C [6]: 100 % of control
T/C [7]: 90 % of control

COc1cc2c(cc1OC)[C@H](C(=O)O)[C@@H](c1ccc(OC(C)C)c(OC)c1)N(C)C2=O
T/C [5]: 95 % of control
T/C [6]: 100 % of control
T/C [7]: 100 % of control

CC(C)=C/C(C)=N/Nc1ccc([N+](=O)[O-])cc1[N+](=O)[O-]
T/C (dose: 25.0 mg/kg/injection, schedule: Q04DX003 (ip), vehicle: saline with Tween-80): 100 % of control
T/C (dose: 50.0 mg/kg/injection, schedule: Q04DX003 (ip), vehicle: saline with Tween-80): 100 % of control
T/C [1]: 100 % of control
